According to patent US12533348B2, “Ferroportin-inhibitors for the use in the treatment of transfusion-dependent beta-thalassemia (TDT)” (Vifor (International) AG, priority 2019, dated 2026):
Several values for one entry are separate records, joined by “and”; a condition that tells them apart may be missing. Equal values may be shown once.

Experiments:
[1] = tested on: Hbb^th3/+ mouse model of β-thalassemia intermedia; test: Combination study: erythroid differentiation stages in spleen by flow cytometry (Ter119/CD44/CD71); assay type: in vivo; settings: percent of parent Ter119+ spleen cells; female th3/+ mice; DFX 30 mg/kg QD, Fpn127 120 mg/kg QD p.o.; end of study; mean
From the text: Distinct stages of erythroid cell differentiation in spleens of female mice were identified by flow cytometry (CANTOII cytometer, BD Biosciences) using PE-conjugated rat anti-mouse CD71 (transferrin receptor-1, eBioscience, Cat. 12-0711), APC-conjugated rat anti-mouse Ter119 (erythroid lineage marker, eBioscience, Cat. 17-5921) and APC-Cy7-conjugated rat anti-mouse CD44 (adhesion molecule that progressively decreases on the surface of developing erythroid cells, BioLegend. Cat. 103028) antibodies. Data were analyzed using FlowJo® software (FlowJo. LLC, version 10.1) Serum Parameters

[2] = Combination study DFX/Fpn127: clinical observations, mortality and body weight; assay type: in vivo, mouse; settings: for BW: th3/+ mice, mean
Procedure: (§1) One day after switching to lid a blood sample was taken by tail vein incision to determine the baseline Hb levels. Hb was measured using a HaemoCue® device. Hb was also measured on days 8, 15, and 22 in the morning before dosing. The animals were dosed p.o. D with 30 mg/kg DFX in 30% Kolliphor, 120 mg/kg Fpn127 in 0.5% C, or both for a total of 17 doses during the 23 days of study. 30% Kolliphor and 0.5% C were dosed as vehicles. The dose of DFX was administered at the beginning of the dark cycle (active phase) at 9:00 followed by 3 h of access to lid. Then, mice were dosed with Fpn127 (or 0.5% C) and were given access to sd for a 6 h period before switched back to lid. On the dosing was paused and mi had access to lid ad libitum.
Animals and their cages were checked daily by the experimenter during the study on working days. During the experimental phase, animals were weighted minimum once per week and scored according to their clinical symptoms: BW, general behavior and activity, appearance of hair coat, eyes, and nose. Clinical observations were recorded when present on separate score sheets.
BW was recorded once before the start of the experimental phase on day −1. During the experimental phase, individual BW were recorded 1 to 2 times per week to calculate the dosing volume and to monitor weight loss.

[3] = tested on: Hbb^th3/+ mouse model of β-thalassemia intermedia; test: Combination study: flow cytometric analysis of intracellular ROS, mitochondria and PS exposure in mature RBC; assay type: in vivo; settings: th3/+ mice, all animals; mature RBCs in whole blood at end of study (pre-terminally d22)
Procedure: In peripheral blood taken on day 22 by tail vein incision, ROS were detected with the indicator chloromethyl-2′,7′-dichlorodihydrofluorescein diacetate (CM-H2DCFDA, Invitrogen), the presence of mitochondria was detected with MitoTracker Deep Red FM (Invitrogen), and PS exposure was detected using the Annexin V Apoptosis Detection Kit (Invitrogen) in mature RBC labelled with Ter119 and CD71 antibodies.
For all analysis, cells were analyzed on a CANTOII cytometer (BD Biosciences) and data were analyzed using FlowJo® software (FlowJo, LLC, version 10.2).

[4] = tested on: Hbb^th3/+ mouse model of β-thalassemia intermedia; test: Combination study: serum EPO (DuoSet ELISA); assay type: in vivo; settings: serum; th3/+ mice; day 23; DFX 30 mg/kg QD, Fpn127 120 mg/kg QD p.o.; all animals; mean
Procedure: (§2) On day 23 (study end) 1 hour after dosing blood was collected by retro-orbital bleeding from pre-terminally anesthetized mice into BD Microtainer Tubes (Cat. 365967 and 365975) for determination of serum iron, transferrin, erythropoietin and compound exposure. Anesthetized animals were subsequently euthanized by cervical dislocation.
(§3) [formula] Serum EPO was measured using a mouse-specific DuoSet ELISA according to the manufacturer's instructions (R&D Systems, Cat. DY959). Plasma concentrations of Fpn127 and DFX were measured at GVK Biosciences, Hyderabad, IN. Flow Cytometric Analysis of Intracellular ROS, Mitochondria, and PS Exposure

[5] = tested on: Hbb^th3/+ mouse model of β-thalassemia intermedia; test: Combination study: hemoglobin (HemoCue photometer); assay type: in vivo; settings: th3/+ mice, DFX 30 mg/kg QD, Fpn127 120 mg/kg QD p.o., mean
Procedure: as §1
Hb was measured on days 1, 8, 15 and 22. Individual Hb values were determined at the starting day of the experiment (day 1) and weekly thereafter during the experimental phase in the morning before the first daily dose. A blood sample was taken by tail vein incision and Hb was measured using a HemoCue® DM201 Hb photometer.

[6] = Combination study: plasma concentrations of Fpn127 and DFX (LC-MS/MS); assay type: in vivo, mouse
Procedure: as §2, §3
Plasma was collected 1 hour after dosing of DFX on day 23 for determination of compound concentration by LC-MS/MS. Plasma exposure of DFX was similar in animals dosed with DFX alone or in combination with Fpn127 (FIG. 11, Table 12). […] As expected, plasma levels of Fpn127 were low as plasma was sampled approximately 20 h after the last dose of Fpn127.

[7] = tested on: Hbb^th3/+ mouse model of β-thalassemia intermedia; test: Combination study: serum iron (MULTIGENT Iron assay), transferrin ELISA and calculated TSAT; assay type: in vivo; settings: th3/+ mice, all animals, mean
Procedure: […] Anesthetized animals were subsequently euthanized by cervical dislocation.
Serum levels of iron were determined in triplicates using MULTIGENT Iron assay (Abbott Diagnostics, Cat. 6K95). Serum Transferrin (TO was measured in duplicates using a mouse-specific ELISA according to the manufacturer's instructions (Abcam, Cat. ab157724). Transferrin saturation (TSAT) was calculated using the formula: […]

For `O=C(O)c1ccc(-n2nc(-c3ccccc3O)nc2-c2ccccc2O)cc1` [DFX, deferasirox, reference compound], the “basophilic erythroblasts, frequency of parent” value [1] was 8.21%, the “mature erythrocytes, frequency of parent” value [1] was 32.35% and the “orthochromatic erythroblasts, frequency of parent” value [1] was 23.48%. For the same molecule, the “polychromatic erythroblasts, frequency of parent” value [1] was 23.90%, the “pro-erythroblasts, frequency of parent” value [1] was 3.29% and the “tolerability / clinical symptoms” value ([2]; Hbb^th3/+ mice, DFX 30 mg/kg QD, Fpn127 120 mg/kg QD p.o., 17 doses in 23 days) was “generally well tolerated”. The “BW by the end of the study vs vehicle treated Hbb^th3/+ mice” value ([2]; males) was “slightly but significantly lower BW”, the BW ([2]; DFX 30 mg/kg QD, Fpn127 120 mg/kg QD p.o., day 1, all animals) was 21.5 g and the BW ([2]; DFX 30 mg/kg QD, Fpn127 120 mg/kg QD p.o., day 1, females) was 19.2 ± 1.3 g and 19.2 g. For the same molecule, the BW ([2]; DFX 30 mg/kg QD, Fpn127 120 mg/kg QD p.o., day 1, males) was 23.7 ± 1.3 g and 23.7 g, the BW ([2]; DFX 30 mg/kg QD, Fpn127 120 mg/kg QD p.o., day 3, all animals) was 23.2 g and the BW ([2]; DFX 30 mg/kg QD, Fpn127 120 mg/kg QD p.o., day 3, females) was 20.9 g. For the same molecule, the BW ([2]; DFX 30 mg/kg QD, Fpn127 120 mg/kg QD p.o., day 3, males) was 25.6 g, the BW ([2]; DFX 30 mg/kg QD, Fpn127 120 mg/kg QD p.o., day 7, all animals) was 23.2 g and the BW ([2]; DFX 30 mg/kg QD, Fpn127 120 mg/kg QD p.o., day 7, females) was 21.0 g. For the same molecule, the BW ([2]; DFX 30 mg/kg QD, Fpn127 120 mg/kg QD p.o., day 7, males) was 25.4 g, the BW ([2]; DFX 30 mg/kg QD, Fpn127 120 mg/kg QD p.o., day 10, all animals) was 22.9 g and the BW ([2]; DFX 30 mg/kg QD, Fpn127 120 mg/kg QD p.o., day 10, females) was 20.6 g. The BW ([2]; DFX 30 mg/kg QD, Fpn127 120 mg/kg QD p.o., day 10, males) was 25.2 g, the BW ([2]; DFX 30 mg/kg QD, Fpn127 120 mg/kg QD p.o., day 14, all animals) was 23.0 g and the BW ([2]; DFX 30 mg/kg QD, Fpn127 120 mg/kg QD p.o., day 14, females) was 20.7 g. For the same molecule, the BW ([2]; DFX 30 mg/kg QD, Fpn127 120 mg/kg QD p.o., day 14, males) was 25.2 g, the BW ([2]; DFX 30 mg/kg QD, Fpn127 120 mg/kg QD p.o., day 17, all animals) was 22.8 g and the BW ([2]; DFX 30 mg/kg QD, Fpn127 120 mg/kg QD p.o., day 17, females) was 20.4 g. It also gave a BW ([2]; DFX 30 mg/kg QD, Fpn127 120 mg/kg QD p.o., day 17, males) of 25.2 g, a BW ([2]; DFX 30 mg/kg QD, Fpn127 120 mg/kg QD p.o., day 22, all animals) of 23.3 g and a BW ([2]; DFX 30 mg/kg QD, Fpn127 120 mg/kg QD p.o., day 22, females) of 20.8 g. The BW ([2]; DFX 30 mg/kg QD, Fpn127 120 mg/kg QD p.o., day 22, males) was 25.9 g, the “% Annex in V-positive RBCs (mean)” value [3] was 0.47% and the “% Mito Tracker-positive RBCs (mean)” value [3] was 0.56%. For the same molecule, the “% ROS-positive RBCs (mean)” value [3] was 41.56%, the EPO [4] was 5277 ± 1710 pg/mL and 5277 pg/mL and the Hb concentration ([5]; day 1 (before dosing), all animals) was 84 g/L. The Hb concentration ([5]; day 1 (before dosing), females) was 86 ± 2 g/L and 86 g/L, the Hb concentration ([5]; day 1 (before dosing), males) was 82 ± 3 g/L and 82 g/L and the Hb concentration ([5]; day 8, all animals) was 98 g/L. For the same molecule, the Hb concentration ([5]; day 8, females) was 99 g/L, the Hb concentration ([5]; day 8, males) was 96 g/L and the Hb concentration ([5]; day 15, all animals) was 81 g/L. The Hb concentration ([5]; day 15, females) was 82 g/L, the Hb concentration ([5]; day 15, males) was 80 g/L and the Hb concentration ([5]; day 22, all animals) was 86 g/L. For the same molecule, the Hb concentration ([5]; day 22, females) was 85 g/L, the Hb concentration ([5]; day 22, males) was 88 g/L and the “plasma exposure of DFX, alone vs in combination with Fpn127” value ([6]; 1 hour after dosing of DFX on day 23 (FIG. 11)) was “similar”. For the same molecule, the concentration at 1 h ([6]; both sexes, Hbb^th3/+ (B6; 129P—b1tm1Unc-b2tm1Unc/J), mouse, oral, 30 mg/kg, th3/+ mice, all animals, plasma collected 1 hour after dosing of DFX on day 23, LC-MS/MS, read-out: Plasma exposure of DFX at the end of the study (mean)) was 15400 ng/mL, the TSAT ([7]; calculated from Tf and serum iron, day 23, 1 h after last DFX dose, approx. 20 h after last Fpn127 dose) was 27.5% and the serum iron ([7]; day 23, 1 h after last DFX dose (30 mg/kg), approx. 20 h after last Fpn127 dose (120 mg/kg)) was 30.8 ± 5.9 µM and 30.8 µM.
